In US20040204475A1, “Pharmaceutical combination” (priority 2003, published 2004):
Like-named read-outs stand apart in the source and are kept apart here.

Assays:
[1] = Tablet hardness relative to tablets made from a placebo blend; assay type: physicochemical; conditions: eletriptan at 2.5% w/w of tablet
Experimental: A mixture of eletriptan hydrobromide (24.24 mg, equivalent to 20 mg of eletriptan free base), sodium bicarbonate (USP, 630 mg) and microcrystalline cellulose (Avicel PH 102, Ph. Eur., 137.76 mg) were blended for 10 minutes, passed through a […] screen and re-blended for a further 10 minutes. Screened intragranular magnesium stearate (Ph. Eur., 8 mg) was added and the mixture was lubricated for 5 minutes. […] The blend was made into a tablet by direct compression. The tablets so produced had excellent weight uniformity and friability.

[2] = Time lag between oral administration and maximal plasma levels, eletriptan in combination with sodium bicarbonate; assay type: in vivo; conditions: administered in combination with sodium bicarbonate, in some cases
Source text: The advantage to the patient arising from the correspondingly swift amelioration of symptoms is self-evident.

[3] = α-polymorphic hydrobromide salt, oral, cited from earlier work
[4] = 30 mg eletriptan, fasted, cited from earlier work

CN1CCC[C@@H]1Cc1c[nH]c2ccc(CCS(=O)(=O)c3ccccc3)cc12 [eletriptan, 3-{[1-methylpyrrolidin-2(R)-yl]methyl}-5-(2-phenylsulfonylethyl)-1H-indole]
increase in tablet hardness [1]: 0.7 kp | time lag between oral administration and maximal plasma levels of drug [2]: 30 min | Tmax (time between administering a standard tablet and maximal plasma concentrations) ([3]; fasted subjects): about 1 hour | Tmax (time between administering a standard tablet and maximal plasma concentrations) ([3]; fed subjects): up to 4 hours | Tmax ([4]; migraine-free patients): 1.3 ± 1.3 h | Tmax ([4]; patients with migraine): 2.8 ± 2.1 h
